Where “and” joins values, the source holds several entries; their conditions need not be identical. Identical values can stand only once. Inconclusive results and toxic doses are left out. Cut-off read from the data, not from the text of the source: active = T/C of 150% or more; inactive = T/C below 125%.
Test system: L1210 leukemia ip in BDF1 mice, survival T/C
Assay: NCI In Vivo Anticancer Drug Screen. Data for tumor model L1210 Leukemia (intraperitoneal) in B6D2F1 (BDF1) mice
Details: endpoint: mean survival time, higher = longer survival
Summary of the method: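 Read-out is survival time, reported as the treated-group measurement over the vehicle-control measurement.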

[1] = dose: 100.0 mg/kg/injection, schedule: Q01DX001 (ip), vehicle: Klucel (hydroxypropylcellulose) (HPC)
[2] = dose: 200.0 mg/kg/injection, schedule: Q01DX001 (ip), vehicle: Klucel (hydroxypropylcellulose) (HPC)
[3] = dose: 50.0 mg/kg/injection, schedule: Q01DX001 (ip), vehicle: saline
[4] = dose: 100.0 mg/kg/injection, schedule: Q01DX001 (ip), vehicle: saline
[5] = dose: 12.5 mg/kg/injection, schedule: Q04DX003 (ip), vehicle: Klucel (hydroxypropylcellulose) (HPC)
[6] = dose: 25.0 mg/kg/injection, schedule: Q04DX003 (ip), vehicle: Klucel (hydroxypropylcellulose) (HPC)
[7] = dose: 50.0 mg/kg/injection, schedule: Q04DX003 (ip), vehicle: Klucel (hydroxypropylcellulose) (HPC)
[8] = dose: 100.0 mg/kg/injection, schedule: Q01DX009 (ip), vehicle: Klucel (hydroxypropylcellulose) (HPC)
[9] = dose: 100.0 mg/kg/injection, schedule: Q04DX003 (ip), vehicle: Klucel (hydroxypropylcellulose) (HPC)
[10] = dose: 100.0 mg/kg/injection, schedule: Q01DX001 (ip), vehicle: saline with Tween-80
[11] = dose: 100.0 mg/kg/injection, schedule: Q04DX003 (ip), vehicle: saline with Tween-80
[12] = dose: 200.0 mg/kg/injection, schedule: Q01DX001 (ip), vehicle: saline with Tween-80
[13] = dose: 200.0 mg/kg/injection, schedule: Q04DX003 (ip), vehicle: saline with Tween-80
[14] = dose: 400.0 mg/kg/injection, schedule: Q01DX001 (ip), vehicle: saline with Tween-80
[15] = dose: 400.0 mg/kg/injection, schedule: Q04DX003 (ip), vehicle: saline with Tween-80
[16] = dose: 200.0 mg/kg/injection, schedule: Q01DX001 (ip), vehicle: saline
[17] = dose: 400.0 mg/kg/injection, schedule: Q01DX001 (ip), vehicle: saline
[18] = dose: 100.0 mg/kg/injection, schedule: Q04DX002 (ip), vehicle: Klucel (hydroxypropylcellulose) (HPC)
[19] = dose: 200.0 mg/kg/injection, schedule: Q04DX002 (ip), vehicle: Klucel (hydroxypropylcellulose) (HPC)
[20] = dose: 50.0 mg/kg/injection, schedule: Q01DX009 (ip), vehicle: saline with Tween-80
[21] = dose: 200.0 mg/kg/injection, schedule: Q04DX003 (ip), vehicle: Klucel (hydroxypropylcellulose) (HPC)
[22] = dose: 200.0 mg/kg/injection, schedule: Q01DX009 (ip), vehicle: Klucel (hydroxypropylcellulose) (HPC)
[23] = dose: 400.0 mg/kg/injection, schedule: Q04DX003 (ip), vehicle: Klucel (hydroxypropylcellulose) (HPC)

Measured: T/C

C=C(C)Cc1cnc(SC)[nH]c1=O
inactive: dose: 50.0 mg/kg/injection, schedule: Q01DX001 (ip), vehicle: Klucel (hydroxypropylcellulose) (HPC) 98 % of control | [1] 100 % of control | [2] 98 % of control

O=C1NC(=S)N/C1=C\c1ccco1
inactive: dose: 25.0 mg/kg/injection, schedule: Q01DX001 (ip), vehicle: saline 100 % of control | [3] 100 % of control | [4] 98 % of control and 100 % of control

CCCCCCCCCCCCN(CCC(=O)O)S(=O)(=O)O
inactive: [5] 101 % of control | dose: 25.0 mg/kg/injection, schedule: Q01DX009 (ip), vehicle: Klucel (hydroxypropylcellulose) (HPC) 94 % of control | [6] 98 % of control | dose: 50.0 mg/kg/injection, schedule: Q01DX009 (ip), vehicle: Klucel (hydroxypropylcellulose) (HPC) 96 % of control | [7] 102 % of control | [8] 94 % of control | [9] 97 % of control

Fc1c(F)c(F)[c]([Hg][c]2c(F)c(F)c(F)c(F)c2F)c(F)c1F
inactive: dose: 3.13 mg/kg/injection, schedule: Q04DX002 (ip), vehicle: saline with Tween-80 107 % of control | dose: 6.25 mg/kg/injection, schedule: Q04DX002 (ip), vehicle: saline with Tween-80 93 % of control | dose: 12.5 mg/kg/injection, schedule: Q04DX002 (ip), vehicle: saline with Tween-80 87 % of control | dose: 25.0 mg/kg/injection, schedule: Q04DX002 (ip), vehicle: saline with Tween-80 97 % of control

N#Cc1csc(CCNC(=O)c2ccccc2)n1
inactive: [10] 105 % of control | [11] 100 % of control | [12] 104 % of control | [13] 93 % of control | [14] 93 % of control | [15] 94 % of control

CN1C(=O)OC2(CCN(CCCS(=O)(=O)c3ccc(F)cc3)CC2)C1=O
inactive: [1] 92 % of control | [2] 105 % of control | dose: 400.0 mg/kg/injection, schedule: Q01DX001 (ip), vehicle: Klucel (hydroxypropylcellulose) (HPC) 93 % of control

c1ccc(C(=NN(CCN(N=C(c2ccccc2)c2ccccc2)c2ccccc2)c2ccccc2)c2ccccc2)cc1
inactive: [3] 101 % of control | [4] 92 % of control | [16] 86 % of control | [17] 92 % of control

CCCCCCCCCCCC(=O)O.[Cr]
inactive: dose: 100.0 mg/kg/injection, schedule: Q01DX009 (ip), vehicle: other 93 % of control | dose: 100.0 mg/kg/injection, schedule: Q04DX003 (ip), vehicle: other 97 % of control | dose: 200.0 mg/kg/injection, schedule: Q01DX009 (ip), vehicle: other 95 % of control | dose: 200.0 mg/kg/injection, schedule: Q04DX003 (ip), vehicle: other 102 % of control | dose: 400.0 mg/kg/injection, schedule: Q01DX009 (ip), vehicle: other 92 % of control | dose: 400.0 mg/kg/injection, schedule: Q04DX003 (ip), vehicle: other 91 % of control

COC(=O)C(C)NC(=O)C(COC1OC(COC(C)=O)C(OC(C)=O)C(OC(C)=O)C1NC(C)=O)NC(=O)OCc1ccccc1 (configuration not stated)
inactive: dose: 50.0 mg/kg/injection, schedule: Q04DX002 (ip), vehicle: Klucel (hydroxypropylcellulose) (HPC) 98 % of control | [18] 91 % of control | [19] 98 % of control

O/C(=C/C(=S)S)c1cccs1
inactive: dose: 0.78 mg/kg/injection, schedule: Q01DX009 (ip), vehicle: water 103 % of control | dose: 1.56 mg/kg/injection, schedule: Q01DX009 (ip), vehicle: water 105 % of control | dose: 3.12 mg/kg/injection, schedule: Q01DX009 (ip), vehicle: water 102 % of control | dose: 6.25 mg/kg/injection, schedule: Q01DX009 (ip), vehicle: water 95 % of control | dose: 12.5 mg/kg/injection, schedule: Q04DX003 (ip), vehicle: water 102 % of control | dose: 25.0 mg/kg/injection, schedule: Q04DX003 (ip), vehicle: water 94 % of control | dose: 50.0 mg/kg/injection, schedule: Q04DX003 (ip), vehicle: water 100 % of control

C[n+]1ncc2ccccc2c1Cc1ccc(Br)cc1
inactive: dose: 6.25 mg/kg/injection, schedule: Q01DX009 (ip), vehicle: other 98 % of control and 103 % of control | dose: 6.25 mg/kg/injection, schedule: Q04DX002 (ip), vehicle: carboxymethylcellulose (CMC) 91 % of control | dose: 12.5 mg/kg/injection, schedule: Q01DX009 (ip), vehicle: other 108 % of control and 86 % of control | dose: 12.5 mg/kg/injection, schedule: Q04DX002 (ip), vehicle: carboxymethylcellulose (CMC) 106 % of control | dose: 25.0 mg/kg/injection, schedule: Q04DX002 (ip), vehicle: carboxymethylcellulose (CMC) 91 % of control | dose: 25.0 mg/kg/injection, schedule: Q04DX002 (ip), vehicle: other 100 % of control and 90 % of control

O=C1Nc2ccccc2C1=Nc1ccc2[nH]c3ccccc3c2c1
inactive: dose: 100.0 mg/kg/injection, schedule: Q01DX001 (ip), vehicle: carboxymethylcellulose (CMC) 91 % of control | dose: 200.0 mg/kg/injection, schedule: Q01DX001 (ip), vehicle: carboxymethylcellulose (CMC) 94 % of control | dose: 400.0 mg/kg/injection, schedule: Q01DX001 (ip), vehicle: carboxymethylcellulose (CMC) 91 % of control

C=C/C=C/CCN1CC1
inactive: [5] 114 % of control | [6] 112 % of control | [7] 106 % of control

CCCCOC(=O)c1ccc(OC(=O)Nc2ccc(Cl)cc2)cc1
inactive: dose: 25.0 mg/kg/injection, schedule: Q01DX009 (ip), vehicle: saline with Tween-80 101 % of control and 110 % of control | [20] 101 % of control and 110 % of control | [10] 104 % of control | dose: 100.0 mg/kg/injection, schedule: Q04DX002 (ip), vehicle: saline with Tween-80 93 % of control and 115 % of control | [11] 94 % of control | [12] 95 % of control | dose: 200.0 mg/kg/injection, schedule: Q04DX002 (ip), vehicle: saline with Tween-80 95 % of control and 110 % of control | [13] 94 % of control | [14] 98 % of control | dose: 400.0 mg/kg/injection, schedule: Q04DX002 (ip), vehicle: saline with Tween-80 100 % of control and 106 % of control | [15] 97 % of control

CC(=O)c1c2ccccc2cc2ccccc12
inactive: [4] 106 % of control | [16] 106 % of control | [17] 101 % of control

COc1ccc2c(c1)CCC2=O
inactive: [20] 112 % of control | dose: 100.0 mg/kg/injection, schedule: Q01DX009 (ip), vehicle: saline with Tween-80 112 % of control | [9] 91 % of control | [21] 96 % of control

O=C(CSCCCCl)OCCSCCCCl
inactive: dose: 17.5 mg/kg/injection, schedule: Q01DX Z (ip), vehicle: saline 93 % of control | dose: 70.0 mg/kg/injection, schedule: Q01DX Z (ip), vehicle: saline 104 % of control

CCOc1ccccc1NC(=S)NC1CCCCC1
inactive: [8] 97 % of control | [22] 100 % of control

O=C(NCc1ccc(Cl)cc1)NC1CCCCC1
inactive: [18] 100 % of control | [19] 100 % of control | dose: 400.0 mg/kg/injection, schedule: Q04DX002 (ip), vehicle: Klucel (hydroxypropylcellulose) (HPC) 106 % of control

Cc1ccc2ccccc2c1CC(=O)NN
inactive: [9] 102 % of control | [21] 104 % of control | [23] 104 % of control

COC(=O)c1ccc([N+](=O)[O-])c(O)c1
inactive: [8] 96 % of control | [9] 96 % of control | [22] 98 % of control | [21] 100 % of control | dose: 400.0 mg/kg/injection, schedule: Q01DX009 (ip), vehicle: Klucel (hydroxypropylcellulose) (HPC) 88 % of control | [23] 102 % of control

From PubChem BioAssay AID248 (DTP/NCI, 2004)
